Measured values: ChEMBL document CHEMBL6153083, “Synthesis, Structural Modification, and Antismall Cell Lung Cancer Activity of 3-Arylisoquinolines with Dual Inhibitory Activity on Topoisomerase I and II” (J Med Chem, 2025)
Activity calls are given as the source filed them. The calls are words filed in the database; no cut-off is given here.

Assays:
[1] = Antiproliferative activity against human NCI-H196 cells incubated for 72 hrs; type: functional, cell-based; conditions: NCI-H196, 72 h
[2] = tested on: NCI-H446; assay: Antiproliferative activity against human NCI-H446 cells incubated for 72 hrs; type: functional, cell-based; conditions: NCI-H446, 72 h
[3] = tested on: NCI-H146; assay: Antiproliferative activity against human NCI-H146 cells incubated for 72 hrs; type: functional, cell-based; conditions: NCI-H146, 72 h
[4] = tested on: SHP77; assay: Antiproliferative activity against human SHP77 cells incubated for 72 hrs; type: functional, cell-based; conditions: SHP77, 72 h
[5] = Antiproliferative activity against human BEAS-2B cells incubated for 72 hrs; type: toxicity, cell-based
[6] = tested on: NCI-H82; assay: Antiproliferative activity against human NCI-H82 cells incubated for 72 hrs; type: functional, cell-based; conditions: NCI-H82, 72 h
[7] = species: Homo sapiens; assay: Inhibition of Topo II (unknown origin) relaxation activity using pBR322 plasmid DNA as substrate at 25 to 100 uM incubated for 30 mins in presence of ATP; conditions: dose 25-100 µM
[8] = tested on: NCI-H446; assay: Induction of DNA damage in human NCI-H446 cells incubated for 48 hrs by comet assay; type: functional, cell-based; conditions: dose 1-8 µM
[9] = tested on: NCI-H1048; assay: Induction of DNA damage in human NCI-H1048 cells incubated for 48 hrs by comet assay; type: functional, cell-based; conditions: dose 1-8 µM
[10] = tested on: NCI-H1048; assay: Inhibition of cell proliferation in human NCI-H1048 cells incubated for 24 hrs by EdU incorporation assay; type: functional, cell-based; conditions: dose 0.375-3 µM
[11] = tested on: NCI-H446; assay: Inhibition of cell migration in human NCI-H446 cells incubated for 24 hrs by transwell assay; type: functional, cell-based; conditions: dose 0.375-3 µM
[12] = tested on: NCI-H1048; assay: Inhibition of cell migration in human NCI-H1048 cells incubated for 24 hrs by transwell assay; type: functional, cell-based; conditions: dose 0.375-3 µM
[13] = tested on: NCI-H446; assay: Inhibition of cell invasion in human NCI-H446 cells incubated for 24 hrs by transwell assay; type: functional, cell-based
[14] = tested on: NCI-H1048; assay: Inhibition of cell invasion in human NCI-H1048 cells incubated for 24 hrs by transwell assay; type: functional, cell-based
[15] = tested on: NCI-H446; assay: Inhibition of cell migration in human NCI-H446 cells incubated for 24 hrs by wound-healing assay; type: functional, cell-based; conditions: dose 0.375-3 µM
[16] = tested on: NCI-H1048; assay: Inhibition of cell migration in human NCI-H1048 cells incubated for 24 hrs by wound-healing assay; type: functional, cell-based; conditions: dose 0.375-3 µM
[17] = tested on: NCI-H1048; assay: Induction of cell cycle arrest in human NCI-H1048 cells assessed as accumulation at S phase incubated for 48 hrs by PI staining based flow cytometry; type: functional
[18] = tested on: NCI-H446; assay: Induction of apoptosis in human NCI-H446 cells assessed as reduction in cell viability incubated for 48 hrs by Geimsa staining based analysis; type: functional; conditions: dose 1-8 µM
[19] = tested on: NCI-H1048; assay: Induction of apoptosis in human NCI-H1048 cells assessed as reduction in cell viability incubated for 48 hrs by Geimsa staining based analysis; type: functional
[20] = tested on: NCI-H446; assay: Induction of apoptosis in human NCI-H446 cells assessed as chromatin condensation at 1 to 8 uM incubated for 48 hrs by Geimsa staining based analysis; type: functional, cell-based; conditions: dose 1-8 µM
[21] = tested on: NCI-H446; assay: Induction of apoptosis in human NCI-H446 cells assessed as increase in Bax level incubated for 48 hrs by Western blot analysis; type: functional, cell-based; conditions: dose 1-8 µM
[22] = tested on: NCI-H446; assay: Induction of apoptosis in human NCI-H446 cells assessed as increase in cleaved caspase-9 level incubated for 48 hrs by Western blot analysis; type: functional, cell-based; conditions: dose 1-8 µM
[23] = tested on: NCI-H1048; assay: Induction of apoptosis in human NCI-H1048 cells assessed as decrease in Bcl-2 level incubated for 48 hrs by Western blot analysis; type: functional, cell-based
[24] = tested on: NCI-H1048; assay: Induction of apoptosis in human NCI-H1048 cells assessed as increase in Bax level incubated for 48 hrs by Western blot analysis; type: functional, cell-based
[25] = tested on: NCI-H1048; assay: Induction of apoptosis in human NCI-H1048 cells assessed as increase in cleaved caspase-3 level incubated for 48 hrs by Western blot analysis; type: functional, cell-based
[26] = tested on: NCI-H1048; assay: Induction of apoptosis in human NCI-H1048 cells assessed as increase in cleaved caspase-9 level incubated for 48 hrs by Western blot analysis; type: functional, cell-based
[27] = Inhibition of PI3K/AKT/mTOR signalling pathway in human NCI-H446 cells assessed as decrease in AKT level at 1 to 8 uM incubated for 48 hrs by Western blot analysis; type: cell-based; conditions: dose 1-8 µM
[28] = Inhibition of PI3K/AKT/mTOR signalling pathway in human NCI-H446 cells assessed as decrease in mTOR level at 1 to 8 uM incubated for 48 hrs by Western blot analysis; type: cell-based; conditions: dose 1-8 µM
[29] = Cmax in Sprague-Dawley rat at 10 mg/kg, ip measured after 24 hrs by LC-MS/MS analysis; type: ADME, organism-based; conditions: in vivo
[30] = Tmax in Sprague-Dawley rat at 10 mg/kg, ip measured after 24 hrs by LC-MS/MS analysis; type: ADME, organism-based; conditions: in vivo
[31] = Half life in Sprague-Dawley rat at 10 mg/kg, ip measured after 24 hrs by LC-MS/MS analysis; type: ADME, organism-based; conditions: in vivo
[32] = AUC (0 to t) in Sprague-Dawley rat at 10 mg/kg, ip measured after 24 hrs by LC-MS/MS analysis; type: ADME, organism-based; conditions: in vivo
[33] = AUC (0 to infinity) in Sprague-Dawley rat at 10 mg/kg, ip measured after 24 hrs by LC-MS/MS analysis; type: ADME, organism-based; conditions: in vivo
[34] = MRT (0 to infinity) in Sprague-Dawley rat at 10 mg/kg, ip measured after 24 hrs by LC-MS/MS analysis; type: ADME, organism-based; conditions: in vivo
[35] = Acute toxicity in Kunming mouse assessed as animal death at 400 mg/kg, ip; type: organism-based; conditions: in vivo
[36] = Acute toxicity in Kunming mouse assessed as lethal dose; conditions: in vivo
[37] = Acute toxicity in Kunming mouse assessed as change in body weight at 300 mg/kg, ip measured for 10 days; type: organism-based; conditions: in vivo, 240 h, time 10 day
[38] = tested on: NCI-H446; assay: Antitumor activity against human NCI-H446 cells xenografted in BALB/c nude mouse at 10 mg/kg, ip for 21 days relative to control; type: functional; conditions: NCI-H446, 504 h, time 21 day, read-out: TGI
[39] = tested on: NCI-H446; assay: Antitumor activity against human NCI-H446 cells xenografted in BALB/c nude mouse at 20 mg/kg, ip for 21 days relative to control; type: functional; conditions: NCI-H446, 504 h, time 21 day, read-out: TGI
[40] = tested on: NCI-H446; assay: Antitumor activity against human NCI-H446 cells xenografted in BALB/c nude mouse assessed as decrease in tumor volume at 10 to 20 mg/kg, ip for 21 days; type: functional, organism-based; conditions: dose 10-20 mg/kg, time 21.0 day
[41] = Toxicity in BALB/c nude mouse xenografted with human NCI-H446 cells assessed as body weight change at 10 to 20 mg/kg, ip for 21 days; type: organism-based; conditions: in vivo, 504 h, dose 10-20 mg/kg, time 21 day
[42] = Toxicity in BALB/c nude mouse xenografted with human NCI-H446 cells assessed as deleterious effect in heart at 10 to 20 mg/kg, ip for 21 days by H and E staining based analysis; type: organism-based; conditions: in vivo, 504 h, dose 10-20 mg/kg, time 21 day
[43] = Toxicity in BALB/c nude mouse xenografted with human NCI-H446 cells assessed as deleterious effect in liver at 10 to 20 mg/kg, ip for 21 days by H and E staining based analysis; type: organism-based; conditions: in vivo, 504 h, dose 10-20 mg/kg, time 21 day
[44] = Toxicity in BALB/c nude mouse xenografted with human NCI-H446 cells assessed as deleterious effect in lungs at 10 to 20 mg/kg, ip for 21 days by H and E staining based analysis; type: organism-based; conditions: in vivo, 504 h, dose 10-20 mg/kg, time 21 day

Which IC50 [1] does the source give for CCC1CCCC(C)N1Cc1cc2c(cc1-c1cc3ccc4c(c3cn1)OCO4)OCO2 (centres undefined) here?
The IC50 was 13.9 µM.

And the IC50 [2]?
The IC50 was 1.32 µM.

And the IC50 [3]?
Its IC50 is 6.23 µM.

And the IC50 [4]?
The IC50 was 8.01 µM.

What about the IC50 at 72 h [5] of the same compound?
Its IC50 at 72 h is greater than 100 µM.

And the IC50 [6]?
The IC50 was 2.41 µM.

What about the inhibition [7] of the same compound?
Its inhibition is “Active; Exhibited Stronger Activity Against Topo Ii Compared To Topo I”.

What about the Activity [8] of the same compound?
Its Activity is “Dose-dependent-effect”.

And the Activity [9]?
The Activity was “Dose-dependent-effect”.

What about the inhibition [10] of the same compound?
Its inhibition is “Dose-dependent-effect; Compound Effect Surpassed Etoposide Effect”.

And the inhibition [11]?
The inhibition was “Dose-dependent-effect”.

What about the inhibition [12] of the same compound?
Its inhibition is “Dose-dependent-effect”.

And the inhibition [13]?
Its inhibition is “Dose-dependent-effect”.

What about the inhibition [14] of the same compound?
The inhibition was “Dose-dependent-effect”.

And the inhibition [15]?
Its inhibition is “Dose-dependent-effect”.

And the inhibition [16]?
Its inhibition is “Dose-dependent-effect”.

What about the Activity [17] of the same compound?
Its Activity is “Dose-dependent-effect”.

And the Activity [18]?
The Activity was “Dose-dependent-effect”.

What about the Activity [19] of the same compound?
The Activity was “Dose-dependent-effect”.

What about the Activity [20] of the same compound?
Its Activity is “Active”.

And the Activity [21]?
The Activity was “Dose-dependent-effect”.

What about the Activity [22] of the same compound?
Its Activity is “Dose-dependent-effect”.

And the Activity [23]?
Its Activity is “Dose-dependent-effect”.

And the Activity [24]?
Its Activity is “Dose-dependent-effect”.

And the Activity [25]?
The Activity was “Dose-dependent-effect”.

And the Activity [26]?
The Activity was “Dose-dependent-effect”.

And the inhibition [27]?
Its inhibition is “Active”.

What about the inhibition [28] of the same compound?
The inhibition was “Active”.

And the Cmax [29]?
Its Cmax is 228 ng/mL.

And the Tmax [30]?
The Tmax was 0.25 h.

What about the half-life [31] of the same compound?
Its half-life is 4.86 h.

What about the AUC(0-t) at 24 h [32] of the same compound?
The AUC(0-t) at 24 h was 1180 ng·h/mL.

And the AUC(0-inf) [33]?
Its AUC(0-inf) is 1210 ng·h/mL.

And the MRT inf [34]?
Its MRT inf is 6.14 h.

What about the Activity [35] of the same compound?
The Activity was “Toxic”.

What about the LD50 [36] of the same compound?
Its LD50 is 300 mg/kg.

What about the Activity [37] of the same compound?
Its Activity is “Non-toxic”.

What about the inhibition in vivo at 10 mg/kg [38] of the same compound?
The inhibition in vivo at 10 mg/kg was 69.2%.

And the inhibition in vivo at 20 mg/kg [39]?
The inhibition in vivo at 20 mg/kg was 85.5%.

And the Activity [40]?
Its Activity is “Active; Exhibited Markedly Slow Growth Rate”.

And the Activity [41]?
Its Activity is “Non-toxic”.

And the Activity [42]?
Its Activity is “Non-toxic”.

And the Activity [43]?
Its Activity is “Non-toxic”.

What about the Activity [44] of the same compound?
Its Activity is “Non-toxic”.
